Results reported in PubChem BioAssay (NCI).
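Following 48 hours of exposure in 96-well plates, responses at five concentrations were used to interpolate endpoints linearly. The concentration for 50% growth inhibition is given as GI50. At the TGI there is no net growth.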

What was measured:
Experiment in all cases: inhibition of tumour cell growth, NCI panel, 48 h; in the data active means GI50 below about 0.43 µM; inactive means the rest
NCI-H460 lung = tested on: NCI-H460 lung
UO-31 renal = tested on: UO-31 renal
NCI/ADR-RES ovarian = tested on: NCI/ADR-RES ovarian
OVCAR-4 ovarian = tested on: OVCAR-4 ovarian
NCI-H522 lung = tested on: NCI-H522 lung
LOX IMVI melanoma = tested on: LOX IMVI melanoma
COLO 205 colon = tested on: COLO 205 colon
OVCAR-8 ovarian = tested on: OVCAR-8 ovarian
CCRF-CEM leukemia = tested on: CCRF-CEM leukemia
SK-MEL-2 melanoma = tested on: SK-MEL-2 melanoma

O=C1C(=O)c2ccccc2C(O)=C1CCCc1ccc(C2CCCCC2)cc1
34.8 µM: TGI (COLO 205 colon)
inactive: GI50 (NCI-H460 lung) 2.78 µM | GI50 (UO-31 renal) 5 µM | GI50 (NCI/ADR-RES ovarian) 5.66 µM | GI50 (OVCAR-4 ovarian) 3.23 µM | GI50 (NCI-H522 lung) 7.69 µM | GI50 (LOX IMVI melanoma) 1.15 µM | GI50 (COLO 205 colon) 7.02 µM | GI50 (OVCAR-8 ovarian) 6.01 µM
23.2 µM: TGI (UO-31 renal)
76.5 µM: TGI (NCI/ADR-RES ovarian)
> 100 µM: TGI (OVCAR-4 ovarian) | TGI (NCI-H522 lung) | TGI (OVCAR-8 ovarian)
10.3 µM: TGI (NCI-H460 lung)
12 µM: TGI (LOX IMVI melanoma)

Nc1ccc(COC(O)CN2CCCCC2)cc1[N+](=O)[O-] (stereo unspecified)
> 100 µM: TGI (NCI-H460 lung) | TGI (UO-31 renal) | TGI (CCRF-CEM leukemia) | TGI (NCI/ADR-RES ovarian) | TGI (OVCAR-4 ovarian) | TGI (SK-MEL-2 melanoma) | TGI (NCI-H522 lung) | TGI (COLO 205 colon) | TGI (OVCAR-8 ovarian)

CCn1c2c(c3ccccc31)[C@@H](c1ccc(Cl)cc1)CC1C(=O)N(c3ccccc3)C(=O)C21 (stereo partly specified)
> 100 µM: TGI (NCI-H460 lung) | TGI (UO-31 renal) | TGI (CCRF-CEM leukemia) | TGI (OVCAR-4 ovarian) | TGI (SK-MEL-2 melanoma) | TGI (NCI-H522 lung) | TGI (LOX IMVI melanoma) | TGI (COLO 205 colon) | TGI (OVCAR-8 ovarian)

CC(=O)NNc1nc(C)c(C(=O)/C=C/c2ccc(Cl)cc2)s1
> 100 µM: TGI (NCI-H460 lung) | TGI (UO-31 renal) | TGI (CCRF-CEM leukemia) | TGI (SK-MEL-2 melanoma) | TGI (NCI-H522 lung) | TGI (LOX IMVI melanoma) | TGI (COLO 205 colon) | TGI (OVCAR-8 ovarian)

Cc1nc(N)nc(N)c1CCCc1ccccc1
> 100 µM: TGI (NCI-H460 lung) | TGI (UO-31 renal) | TGI (CCRF-CEM leukemia) | TGI (OVCAR-4 ovarian) | TGI (SK-MEL-2 melanoma) | TGI (NCI-H522 lung) | TGI (LOX IMVI melanoma) | TGI (COLO 205 colon) | TGI (OVCAR-8 ovarian)

Cc1ccc(S(=O)(=O)OC(COC(=O)c2ccccc2)C(OS(=O)(=O)c2ccc(C)cc2)C(OS(=O)(=O)c2ccc(C)cc2)C(COC(=O)c2ccccc2)OS(=O)(=O)c2ccc(C)cc2)cc1 (stereo unspecified)
> 100 µM: TGI (NCI-H460 lung) | TGI (UO-31 renal) | TGI (CCRF-CEM leukemia) | TGI (OVCAR-4 ovarian) | TGI (SK-MEL-2 melanoma) | TGI (NCI-H522 lung) | TGI (LOX IMVI melanoma) | TGI (COLO 205 colon) | TGI (OVCAR-8 ovarian)

Cc1ccc2nc3cc(C)c(=O)cc-3sc2c1
> 100 µM: TGI (NCI-H460 lung) | TGI (UO-31 renal) | TGI (OVCAR-4 ovarian) | TGI (SK-MEL-2 melanoma) | TGI (NCI-H522 lung) | TGI (COLO 205 colon) | TGI (OVCAR-8 ovarian)
45.2 µM: TGI (CCRF-CEM leukemia)

Cc1cccc(C)c1N1C(=O)C(=O)C(c2nc3ccccc3s2)/C(=N/NC(=O)c2ccccc2O)C1=O (stereo unspecified)
> 92 µM: TGI (NCI-H460 lung)
22.4 µM: TGI (UO-31 renal)
> 86.9 µM: TGI (COLO 205 colon)
39.6 µM: TGI (NCI-H522 lung)
> 65.3 µM: TGI (CCRF-CEM leukemia)
> 100 µM: TGI (OVCAR-4 ovarian) | TGI (SK-MEL-2 melanoma) | TGI (LOX IMVI melanoma) | TGI (OVCAR-8 ovarian)

Cc1ccc(S(=O)(=O)c2ccc(C)cc2[N+](=O)[O-])cc1
> 100 µM: TGI (NCI-H460 lung) | TGI (UO-31 renal) | TGI (CCRF-CEM leukemia) | TGI (OVCAR-4 ovarian) | TGI (SK-MEL-2 melanoma) | TGI (NCI-H522 lung) | TGI (LOX IMVI melanoma) | TGI (COLO 205 colon)

CC(C(=O)c1ccccc1)C1(O)C(=O)Nc2ccc(Cl)cc21 (stereo unspecified)
> 100 µM: TGI (NCI-H460 lung) | TGI (SK-MEL-2 melanoma) | TGI (LOX IMVI melanoma) | TGI (COLO 205 colon) | TGI (OVCAR-8 ovarian)
89.7 µM: TGI (UO-31 renal)
77.8 µM: TGI (OVCAR-4 ovarian)

COc1cc(NS(C)(=O)=O)ccc1NCc1c2ccccc2nc2ccccc12
77.3 µM: TGI (NCI-H522 lung)
33.5 µM: TGI (CCRF-CEM leukemia)
99.1 µM: TGI (OVCAR-8 ovarian)
22.3 µM: TGI (OVCAR-4 ovarian)
> 100 µM: TGI (NCI-H460 lung) | TGI (UO-31 renal) | TGI (SK-MEL-2 melanoma) | TGI (COLO 205 colon)
91.1 µM: TGI (LOX IMVI melanoma)
